Patent US9834558B2, “Substituted bridged urea analogs as sirtuin modulators” (GLAXOSMITHKLINE LLC, priority 2013, dated 2017)

The molecules below were run against T1, SIRT1 (Homo sapiens, UniProt Q96EB6) (assay: Trp mass spectrometry assay of SIRT1 activation). Conditions: concentration giving 150% activation of SIRT1; Trp peptide substrate.
T1 sequence (Q96EB6 1-747): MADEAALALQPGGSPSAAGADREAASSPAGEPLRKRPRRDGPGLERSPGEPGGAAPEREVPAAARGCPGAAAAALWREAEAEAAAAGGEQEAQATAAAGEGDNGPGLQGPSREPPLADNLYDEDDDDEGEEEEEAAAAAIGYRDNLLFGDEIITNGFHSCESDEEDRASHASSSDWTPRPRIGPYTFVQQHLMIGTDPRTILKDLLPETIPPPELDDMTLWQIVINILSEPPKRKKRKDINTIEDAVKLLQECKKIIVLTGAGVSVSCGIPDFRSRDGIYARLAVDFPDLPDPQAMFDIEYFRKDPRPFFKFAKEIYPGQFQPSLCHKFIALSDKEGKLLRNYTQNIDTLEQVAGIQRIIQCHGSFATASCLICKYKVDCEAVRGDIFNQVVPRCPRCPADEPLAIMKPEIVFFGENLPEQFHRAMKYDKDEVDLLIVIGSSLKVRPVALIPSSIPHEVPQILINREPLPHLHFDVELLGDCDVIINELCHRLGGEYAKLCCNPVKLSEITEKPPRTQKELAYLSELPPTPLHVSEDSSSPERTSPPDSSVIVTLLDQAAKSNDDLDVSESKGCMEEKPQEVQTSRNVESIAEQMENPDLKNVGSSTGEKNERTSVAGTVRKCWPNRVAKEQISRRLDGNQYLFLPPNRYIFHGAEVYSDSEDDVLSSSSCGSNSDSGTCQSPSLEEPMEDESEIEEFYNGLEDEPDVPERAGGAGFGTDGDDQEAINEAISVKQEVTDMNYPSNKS
Format: biochemical
How it was run: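 Activation read-out: mass-spec measurement of O-acetyl-ADP-ribose or deacetylated Trp peptide versus compound-free controls, giving EC1.5 and Percent Maximum Activation. Reactions ran 25 min at 25 °C, pH 7.5, with 120 μM βNAD+, 0.5 μM acetylated p53-derived peptide and 10 nM His-tagged SIRT1.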
O=C(Nc1cnccn1)N1c2nc(-c3cncc(C(F)(F)F)c3)ccc2N2C[C@@H](O)[C@H]1C2 [Example 695] was tested, and the “Tryp AVG EC1.5 (μM)” value was “B (B (EC1.5 1-25 μM))”. With COc1cc(NC(=O)N2c3nc(-c4cncc(C(F)(F)F)c4)ccc3N3C[C@@H](O)[C@H]2C3)ncn1 [Example 696] the “Tryp AVG EC1.5 (μM)” value was “B (B (EC1.5 1-25 μM))”. Cc1nc(NC(=O)N2c3nc(-c4cncc(C(F)(F)F)c4)ccc3N3C[C@@H](O)[C@H]2C3)sc1C [Example 697] was tested, and the “Tryp AVG EC1.5 (μM)” value was “B (B (EC1.5 1-25 μM))”. In the case of O=C(Nc1cccc(-c2cnco2)n1)N1c2nc(-c3cccc(C(F)(F)F)c3)ccc2N2C[C@@H](O)[C@H]1C2 [Example 698], the “Tryp AVG EC1.5 (μM)” value is reported as “A (A (EC1.5<1 μM))”. In the case of Cc1nc(NC(=O)N2c3nc(-c4cccc(C(F)(F)F)c4)ccc3N3C[C@@H](O)[C@H]2C3)sc1C [Example 699], the “Tryp AVG EC1.5 (μM)” value is reported as “B (B (EC1.5 1-25 μM))”. With O=C(Nc1ccncn1)N1c2nc(-c3cncc(C(F)(F)F)c3)ccc2N2C[C@@H](O)[C@H]1C2 [Example 700] the “Tryp AVG EC1.5 (μM)” value was “B (B (EC1.5 1-25 μM))”. O=C(Nc1cccnn1)N1c2nc(-c3cncc(C(F)(F)F)c3)ccc2N2C[C@@H](O)[C@H]1C2 [Example 701] was tested, and the “Tryp AVG EC1.5 (μM)” value was “B (B (EC1.5 1-25 μM))”. With O=C(Nc1cccc(-c2cnco2)n1)N1c2nc(-c3cncc(C(F)(F)F)c3)ccc2N2C[C@@H](O)[C@H]1C2 [Example 703] the “Tryp AVG EC1.5 (μM)” value was “A (A (EC1.5<1 μM))”. COc1cc(NC(=O)N2c3nc(-c4cncc(C(F)(F)F)c4)ccc3N3C[C@@H](O)[C@H]2C3)nc(OC)n1 [Example 704] was tested, and the “Tryp AVG EC1.5 (μM)” value was “B (B (EC1.5 1-25 μM))”. In the case of O=C(Nc1cccnc1)N1c2nc(-c3cncc(C(F)(F)F)c3)ccc2N2C[C@@H](O)[C@H]1C2 [Example 705], the “Tryp AVG EC1.5 (μM)” value is reported as “B (B (EC1.5 1-25 μM))”. O=C(NCc1ncc(-c2cccc(NC(=O)N3c4nc(-c5cccc(C(F)(F)F)c5)ccc4N4CC[C@H]3C4)c2)o1)OCc1ccccc1 [Example 706] was tested, and the “Tryp AVG EC1.5 (μM)” value was “A (A (EC1.5<1 μM))”. O=C(CCCCCNC(=O)c1ccc2c(c1)C(=O)OC21c2ccc(O)cc2Oc2cc(O)ccc21)NCc1ncc(-c2cccc(NC(=O)N3c4nc(-c5cccc(C(F)(F)F)c5)ccc4N4CC[C@H]3C4)c2)o1 [Example 708] was tested, and the “Tryp AVG EC1.5 (μM)” value was “A (A (EC1.5<1 μM))”. For O=C(Nc1cccc(-c2cnco2)c1)N1c2nc(-c3cncc(C(F)(F)F)c3)ccc2N2C[C@@H](O)[C@H]1C2 [Example 709], the “Tryp AVG EC1.5 (μM)” value was “A (A (EC1.5<1 μM))”. CS(=O)(=O)c1cccc(-c2ccc3c(n2)N(C(=O)Nc2cccc(-c4cnco4)c2)[C@H]2CCN3C2)c1 [Example 710] was tested, and the “Tryp AVG EC1.5 (μM)” value was “A (A (EC1.5<1 μM))”. In the case of CCC(=O)c1cccc(NC(=O)N2c3nc(-c4cccc(C(F)(F)F)c4)ccc3N3CC[C@H]2C3)c1 [Example 714], the “Tryp AVG EC1.5 (μM)” value is reported as “A (A (EC1.5<1 μM))”. For CS(=O)(=O)c1cccc(-c2ccc3c(n2)N(C(=O)Nc2cccc(-c4cnco4)n2)[C@H]2CCN3C2)c1 [Example 715], the “Tryp AVG EC1.5 (μM)” value was “B (B (EC1.5 1-25 μM))”. O=C(Nc1cncc(-c2cnco2)c1)N1c2nc(-c3cncc(F)c3)ccc2N2CC[C@H]1C2 [Example 716] was tested, and the “Tryp AVG EC1.5 (μM)” value was “B (B (EC1.5 1-25 μM))”. For O=C(Nc1cccc(-c2cnco2)c1)N1c2nc(N3CCC[C@@H](C(F)(F)F)C3)ccc2N2CC[C@H]1C2 [Example 717], the “Tryp AVG EC1.5 (μM)” value was “A (A (EC1.5<1 μM))”. With O=C(Nc1cccc(-c2cnco2)c1)N1c2nc(N3CCC[C@H](C(F)(F)F)C3)ccc2N2CC[C@H]1C2 [Example 718] the “Tryp AVG EC1.5 (μM)” value was “A (A (EC1.5<1 μM))”. For O=C(Nc1nnc(-c2ccccc2)o1)N1c2nc(-c3cccc(C(F)(F)F)c3)ccc2N2CC[C@H]1C2 [Example 719], the “Tryp AVG EC1.5 (μM)” value was “A (A (EC1.5<1 μM))”. In the case of O=C(Nc1nnc(-c2ccccn2)o1)N1c2nc(-c3cccc(C(F)(F)F)c3)ccc2N2CC[C@H]1C2 [Example 720], the “Tryp AVG EC1.5 (μM)” value is reported as “A (A (EC1.5<1 μM))”. With O=C(Nc1nnc(-c2cccnc2)o1)N1c2nc(-c3cccc(C(F)(F)F)c3)ccc2N2CC[C@H]1C2 [Example 721] the “Tryp AVG EC1.5 (μM)” value was “A (A (EC1.5<1 μM))”. For O=C(Nc1cccc(-c2cnco2)c1)N1c2nc(-c3cncc(F)c3)ccc2N2CC[C@H]1C2 [Example 722], the “Tryp AVG EC1.5 (μM)” value was “A (A (EC1.5<1 μM))”. In the case of CS(=O)(=O)c1cccc(-c2ccc3c(n2)N(C(=O)Nc2cc(-c4cnco4)ccn2)[C@H]2CCN3C2)c1 [Example 723], the “Tryp AVG EC1.5 (μM)” value is reported as “A (A (EC1.5<1 μM))”. With CS(=O)(=O)c1cccc(-c2ccc3c(n2)N(C(=O)Nc2cncc(-c4cnco4)c2)[C@H]2CCN3C2)c1 [Example 724] the “Tryp AVG EC1.5 (μM)” value was “A (A (EC1.5<1 μM))”. In the case of NCc1ncc(-c2cccc(NC(=O)N3c4nc(-c5cccc(C(F)(F)F)c5)ccc4N4CC[C@H]3C4)c2)o1 [Example 725], the “Tryp AVG EC1.5 (μM)” value is reported as “A (A (EC1.5<1 μM))”. In the case of O=C(Nc1cc(-c2cnco2)ccn1)N1c2nc(-c3cncc(C(F)(F)F)c3)ccc2N2C[C@@H](O)[C@H]1C2 [Example 726], the “Tryp AVG EC1.5 (μM)” value is reported as “B (B (EC1.5 1-25 μM))”. In the case of O=C(Nc1cc(-c2cnco2)ccn1)N1c2nc(-c3cncc(F)c3)ccc2N2CC[C@H]1C2 [Example 727], the “Tryp AVG EC1.5 (μM)” value is reported as “A (A (EC1.5<1 μM))”. O=C(Nc1cccc(CN2CCNCC2)c1)N1c2nc(-c3cccc(C(F)(F)F)c3)ccc2N2CC[C@H]1C2 [Example 731] was tested, and the “Tryp AVG EC1.5 (μM)” value was “A (A (EC1.5<1 μM))”. For O=C(Nc1nnc(-c2ccncc2)s1)N1c2nc(-c3cccc(C(F)(F)F)c3)ccc2N2CC[C@H]1C2 [Example 733], the “Tryp AVG EC1.5 (μM)” value was “A (A (EC1.5<1 μM))”. For O=C(Nc1ncc(-c2ccccc2)s1)N1c2nc(-c3cccc(C(F)(F)F)c3)ccc2N2CC[C@H]1C2 [Example 734], the “Tryp AVG EC1.5 (μM)” value was “B (B (EC1.5 1-25 μM))”. With CCCC(=O)c1cccc(NC(=O)N2c3nc(-c4cccc(C(F)(F)F)c4)ccc3N3CC[C@H]2C3)c1 [Example 736] the “Tryp AVG EC1.5 (μM)” value was “A (A (EC1.5<1 μM))”. With CCCCC(=O)c1cccc(NC(=O)N2c3nc(-c4cccc(C(F)(F)F)c4)ccc3N3CC[C@H]2C3)c1 [Example 737] the “Tryp AVG EC1.5 (μM)” value was “A (A (EC1.5<1 μM))”. O=C(Nc1cccc(-c2cnco2)n1)N1c2nc(-c3cncc(F)c3)ccc2N2CC[C@H]1C2 [Example 739] was tested, and the “Tryp AVG EC1.5 (μM)” value was “A (A (EC1.5<1 μM))”. CC(C)C(=O)c1cccc(NC(=O)N2c3nc(-c4cccc(C(F)(F)F)c4)ccc3N3CC[C@H]2C3)c1 [Example 740] was tested, and the “Tryp AVG EC1.5 (μM)” value was “A (A (EC1.5<1 μM))”. O=C(Nc1cccc(-c2cnco2)c1)N1c2nc(N3CCCN(CC(F)(F)F)CC3)ccc2N2CC[C@H]1C2 [Example 741] was tested, and the “Tryp AVG EC1.5 (μM)” value was “A (A (EC1.5<1 μM))”. CN1CCN(c2ccnc(NC(=O)N3c4nc(-c5cccc(C(F)(F)F)c5)ccc4N4CC[C@H]3C4)n2)CC1 [Example 742] was tested, and the “Tryp AVG EC1.5 (μM)” value was “A (A (EC1.5<1 μM))”. In the case of O=C(Nc1cc(-c2cnco2)cc(-c2cnco2)c1)N1c2nc(-c3cccc(C(F)(F)F)c3)ccc2N2CC[C@H]1C2 [Example 743], the “Tryp AVG EC1.5 (μM)” value is reported as “A (A (EC1.5<1 μM))”. O=C(Nc1nccc(N2CCNCC2)n1)N1c2nc(-c3cccc(C(F)(F)F)c3)ccc2N2CC[C@H]1C2 [Example 745] was tested, and the “Tryp AVG EC1.5 (μM)” value was “B (B (EC1.5 1-25 μM))”. Cc1cc(-c2ccc3c(n2)N(C(=O)Nc2cc(-c4cnco4)ccn2)[C@H]2CCN3C2)ccn1 [Example 746] was tested, and the “Tryp AVG EC1.5 (μM)” value was “A (A (EC1.5<1 μM))”. CN(C)c1ccnc(NC(=O)N2c3nc(-c4cccc(C(F)(F)F)c4)ccc3N3CC[C@H]2C3)n1 [Example 747] was tested, and the “Tryp AVG EC1.5 (μM)” value was “A (A (EC1.5<1 μM))”. For Cc1cc(-c2ccc3c(n2)N(C(=O)Nc2cncc(-c4cnco4)c2)[C@H]2CCN3C2)ccn1 [Example 748], the “Tryp AVG EC1.5 (μM)” value was “A (A (EC1.5<1 μM))”. In the case of CC(C)(C)OC(=O)NCC#Cc1cc(NC(=O)N2c3nc(-c4cccc(C(F)(F)F)c4)ccc3N3CC[C@H]2C3)cc(-c2cnco2)c1 [Example 749], the “Tryp AVG EC1.5 (μM)” value is reported as “A (A (EC1.5<1 μM))”. With CC(C)(C)OC(=O)NCCCc1ccc(NC(=O)N2c3nc(-c4cccc(C(F)(F)F)c4)ccc3N3CC[C@H]2C3)cc1-c1cnco1 [Example 750] the “Tryp AVG EC1.5 (μM)” value was “A (A (EC1.5<1 μM))”. For CC(C)(C)OC(=O)NCC#Cc1ccc(NC(=O)N2c3nc(-c4cccc(C(F)(F)F)c4)ccc3N3CC[C@H]2C3)cc1-c1cnco1 [Example 751], the “Tryp AVG EC1.5 (μM)” value was “A (A (EC1.5<1 μM))”. CC(C)(C)OC(=O)NCCCc1ccc(NC(=O)N2c3nc(-c4cccc(C(F)(F)F)c4)ccc3N3CCC[C@H]2C3)cc1-c1cnco1 [Example 752] was tested, and the “Tryp AVG EC1.5 (μM)” value was “A (A (EC1.5<1 μM))”. In the case of CC(C)(C)OC(=O)NCC#Cc1ccc(NC(=O)N2c3nc(-c4cccc(C(F)(F)F)c4)ccc3N3CCC[C@H]2C3)cc1-c1cnco1 [Example 753], the “Tryp AVG EC1.5 (μM)” value is reported as “A (A (EC1.5<1 μM))”. CC(C)(C)OC(=O)NCCCc1cc(NC(=O)N2c3nc(-c4cccc(C(F)(F)F)c4)ccc3N3CCC[C@H]2C3)cc(-c2cnco2)c1 [Example 754] was tested, and the “Tryp AVG EC1.5 (μM)” value was “A (A (EC1.5<1 μM))”. In the case of NCc1cccc(NC(=O)N2c3nc(-c4cccc(C(F)(F)F)c4)ccc3N3CC[C@H]2C3)c1 [Example 755], the “Tryp AVG EC1.5 (μM)” value is reported as “B (B (EC1.5 1-25 μM))”. In the case of NCCCCCC(=O)NCc1cccc(NC(=O)N2c3nc(-c4cccc(C(F)(F)F)c4)ccc3N3CCC[C@H]2C3)c1 [Example 756], the “Tryp AVG EC1.5 (μM)” value is reported as “A (A (EC1.5<1 μM))”.

Same assay, conditions: percent maximum fold activation of SIRT1; Trp peptide substrate; read-out: Tryp % Fold Act
CC(C)(C)OC(=O)NCCCc1cc(NC(=O)N2c3nc(-c4cccc(C(F)(F)F)c4)ccc3N3CCC[C@H]2C3)cc(-c2cnco2)c1 [Example 754] showed an Emax greater than 150%.
